In the experiment the target is T1, human recombinant LPA2 expressed in CHO cells (Homo sapiens, UniProt Q9HBW0).
T1 construct: expressed in transfected cells; host or cells: CHO cells (CHO-hLPA2 cell line)
Nature of the experiment: FLIPR calcium mobilization assay, LPA2 antagonism in CHO-hLPA2 cells. Format: cell-based. The settings on record: CHO-hLPA2 cells, inhibition of LPA EC80 Ca2+ response, 30 min pre-incubation; read-out: LPA2 IC50. In short, it runs like this: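 Antagonist potency from four-parameter logistic fit (pIC50) of % inhibition of peak Ca2+ signal evoked by an EC80 LPA challenge. Before challenge, hLPA2-CHO cells were dye-loaded (5 μM Cal-520 AM, 2.5 mM probenecid, pH 7.4 HEPES buffer, 30 min, 37° C) and exposed 30 min to compound at 11 concentrations, 0.5% DMSO final.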

T1 sequence (Q9HBW0 whole entry): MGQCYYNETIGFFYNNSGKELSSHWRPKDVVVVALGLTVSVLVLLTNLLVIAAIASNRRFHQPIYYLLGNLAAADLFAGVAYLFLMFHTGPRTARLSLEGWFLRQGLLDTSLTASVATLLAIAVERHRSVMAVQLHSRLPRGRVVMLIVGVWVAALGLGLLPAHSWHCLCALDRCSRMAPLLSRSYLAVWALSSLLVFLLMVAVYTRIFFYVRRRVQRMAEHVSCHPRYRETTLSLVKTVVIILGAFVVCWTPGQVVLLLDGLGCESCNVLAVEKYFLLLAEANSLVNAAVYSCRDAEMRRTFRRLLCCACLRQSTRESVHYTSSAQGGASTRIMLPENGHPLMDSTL

For orientation: IC50 means the concentration needed to halve the response being measured. Take `CC(=O)N1CCc2cc(S(=O)(=O)N3CCN(C[C@H](C)Nc4ncnc5c(-c6cn(C)nc6C(F)(F)F)cccc45)CC3)ccc21` [Example 68, 1-[5-({4-[(2S)-2-({8-[1-methyl-3-(trifluoromethyl)-1H-pyrazol-4-yl]quinazolin-4-yl}amino)propyl]piperazin-1-yl}sulfonyl)-2,3-dihydro-1H-indol-1-yl]ethan-1-one]: the IC50 is less than 10 nM.
The value for `COC(=O)Nc1nc(C)c(S(=O)(=O)N2CCN(C[C@H](C)Nc3ncnc4c(-c5ccc(F)c(Cl)n5)cccc34)CC2)s1` [Example 74, methyl N-[5-({4-[(2S)-2-{[8-(6-chloro-5-fluoropyridin-2-yl)quinazolin-4-yl]amino}propyl]piperazin-1-yl}sulfonyl)-4-methyl-1,3-thiazol-2-yl]carbamate] was 10 to 100 nM.
In the case of `COC(=O)Nc1nc(C)c(S(=O)(=O)N2CCN(C[C@H](C)Nc3ncnc4c(-c5ccc(C)c(CN(C)C)c5)cccc34)CC2)s1` [Example 91, methyl N-[5-({4-[(2S)-2-[(8-{3-[(dimethylamino)methyl]-4-methylphenyl}quinazolin-4-yl)amino]propyl]piperazin-1-yl}sulfonyl)-4-methyl-1,3-thiazol-2-yl]carbamate], the half-maximal inhibitory concentration (IC50) was less than 10 nM.
For the molecule `COC(=O)Nc1nc(C)c(S(=O)(=O)N2CCN(C[C@H](C)Nc3ncnc4c(-c5ccc(C)nc5C)cccc34)CC2)s1` [Example 92, methyl N-[5-({4-[(2S)-2-{[8-(2,6-dimethylpyridin-3-yl)quinazolin-4-yl]amino}propyl]piperazin-1-yl}sulfonyl)-4-methyl-1,3-thiazol-2-yl]carbamate], the half-maximal inhibitory concentration (IC50) is less than 10 nM.
The result for `COC(=O)Nc1nc(C)c(S(=O)(=O)N2CCN(C[C@H](C)Nc3ncnc4c(-c5ccc6c(c5)CN(C)C6)cccc34)CC2)s1` [Example 80, methyl N-[4-methyl-5-({4-[(2S)-2-{[8-(2-methyl-2,3-dihydro-1H-isoindol-5-yl)quinazolin-4-yl]amino}propyl]piperazin-1-yl}sulfonyl)-1,3-thiazol-2-yl]carbamate] reads less than 10 nM.
The value for `Cc1noc(-c2ccc(S(=O)(=O)N3CCN(C[C@H](C)Nc4ncnc5c(-c6c(C)noc6C)cccc45)CC3)s2)c1C` [Example 9, 8-(3,5-dimethyl-1,2-oxazol-4-yl)-N-[(2S)-1-(4-{[5-(3,4-dimethyl-1,2-oxazol-5-yl)thiophen-2-yl]sulfonyl}piperazin-1-yl)propan-2-yl]quinazolin-4-amine] was less than 10 nM; that for `C[C@@H](CN1CCN(S(=O)(=O)c2ccccc2)CC1)Nc1ncnc2c(-c3cn(C)nc3C(F)(F)F)cccc12` [Example 88, N-[(2S)-1-[4-(benzenesulfonyl)piperazin-1-yl]propan-2-yl]-8-[1-methyl-3-(trifluoromethyl)-1H-pyrazol-4-yl]quinazolin-4-amine] was 10 to 100 nM.
As to `Cc1cc(-c2ccc(S(=O)(=O)N3CCN(C[C@H](C)Nc4ncnc5c(-c6cn(C)nc6C6CC6)cccc45)CC3)s2)on1` [Example 18, 8-(3-cyclopropyl-1-methyl-1H-pyrazol-4-yl)-N-[(2S)-1-(4-{[5-(3-methyl-1,2-oxazol-5-yl)thiophen-2-yl]sulfonyl}piperazin-1-yl)propan-2-yl]quinazolin-4-amine], the IC50 is less than 10 nM.
The value for `COC(=O)Nc1nc(C)c(S(=O)(=O)N2CCN(C[C@H](C)Nc3ncnc4c(-c5cnn(C)c5)cccc34)CC2)s1` [Example 65, methyl N-[4-methyl-5-({4-[(2S)-2-{[8-(1-methyl-1H-pyrazol-4-yl)quinazolin-4-yl]amino}propyl]piperazin-1-yl}sulfonyl)-1,3-thiazol-2-yl]carbamate] was less than 10 nM; that for `Cc1cc(-c2ccc(S(=O)(=O)N3CCN(CCNc4ncnc5c(-c6cccnc6)cccc45)CC3)s2)on1` [Example 19, N-[2-(4-{[5-(3-methyl-1,2-oxazol-5-yl)thiophen-2-yl]sulfonyl}piperazin-1-yl)ethyl]-8-(pyridin-3-yl)quinazolin-4-amine] was less than 1000 nM.
As for `COC(=O)Nc1nc(C)c(S(=O)(=O)N2CCN(C[C@H](C)Nc3ncnc4c(-c5ccnc(C#N)n5)cccc34)CC2)s1` [Example 73, methyl N-[5-({4-[(2S)-2-{[8-(2-cyanopyrimidin-4-yl)quinazolin-4-yl]amino}propyl]piperazin-1-yl}sulfonyl)-4-methyl-1,3-thiazol-2-yl]carbamate], the IC50 lay within 10 to 100 nM.
The value for `COC(=O)Nc1nc(C)c(S(=O)(=O)N2CCN(C[C@H](C)Nc3ncnc4c(-c5ccnc(N6CCN(C)CC6)c5)cccc34)CC2)s1` [Example 44, methyl N-[4-methyl-5-({4-[(2S)-2-({8-[2-(4-methylpiperazin-1-yl)pyridin-4-yl]quinazolin-4-yl}amino)propyl]piperazin-1-yl}sulfonyl)-1,3-thiazol-2-yl]carbamate] was less than 10 nM; that for `COC(=O)Nc1nc(C)c(S(=O)(=O)N2CCN(C[C@H](C)Nc3ncnc4c(-c5sc(C)nc5C)cccc34)CC2)s1` [Example 1, methyl N-[5-({4-[(2S)-2-{[8-(2,4-dimethyl-1,3-thiazol-5-yl)quinazolin-4-yl]amino}propyl]piperazin-1-yl}sulfonyl)-4-methyl-1,3-thiazol-2-yl]carbamate] was less than 10 nM; that for `COC(=O)Nc1nc(C)c(S(=O)(=O)N2CCN(C[C@H](C)Nc3ncnc4c(-c5cncc(NC=O)c5)cccc34)CC2)s1` [Example 72, methyl N-[5-({4-[(2S)-2-{[8-(5-formamidopyridin-3-yl)quinazolin-4-yl]amino}propyl]piperazin-1-yl}sulfonyl)-4-methyl-1,3-thiazol-2-yl]carbamate] was less than 10 nM.
The result for `C[C@@H](CN1CCN(S(=O)(=O)c2cccnc2)CC1)Nc1ncnc2c(-c3cn(C)nc3C(F)(F)F)cccc12` [Example 104, 8-[1-methyl-3-(trifluoromethyl)-1H-pyrazol-4-yl]-N-[(2S)-1-[4-(pyridine-3-sulfonyl)piperazin-1-yl]propan-2-yl]quinazolin-4-amine] reads 10 to 100 nM; that for `Cc1nc(C)c(-c2cccc3c(N[C@@H](C)CN4CCN(S(=O)(=O)c5ccc6[nH]c(=O)sc6c5)CC4)ncnc23)s1` [Example 98, 6-({4-[(2S)-2-{[8-(2,4-dimethyl-1,3-thiazol-5-yl)quinazolin-4-yl]amino}propyl]piperazin-1-yl}sulfonyl)-2,3-dihydro-1,3-benzothiazol-2-one], less than 10 nM.
The result for `Cc1nc2ccc(S(=O)(=O)N3CCN(C[C@H](C)Nc4ncnc5c(-c6ccc(F)c(CN(C)C)c6)cccc45)CC3)cc2s1` [Example 105, 8-{3-[(dimethylamino)methyl]-4-fluorophenyl}-N-[(2S)-1-{4-[(2-methyl-1,3-benzothiazol-6-yl)sulfonyl]piperazin-1-yl}propan-2-yl]quinazolin-4-amine] reads less than 10 nM.
Consider `COC(=O)Nc1nc(C)c(S(=O)(=O)N2CCN(C[C@H](C)Nc3ncnc4c(-c5cccc(CN(C)C)c5F)cccc34)CC2)s1` [Example 90, methyl N-[5-({4-[(2S)-2-[(8-{3-[(dimethylamino)methyl]-2-fluorophenyl}quinazolin-4-yl)amino]propyl]piperazin-1-yl}sulfonyl)-4-methyl-1,3-thiazol-2-yl]carbamate], for which the IC50 was less than 10 nM.
For `Cc1ccc(-c2cccc3c(N[C@@H](C)CN4CCN(S(=O)(=O)c5ccc6nc(C)sc6c5)CC4)ncnc23)cn1` [Example 99, N-[(2S)-1-{4-[(2-methyl-1,3-benzothiazol-6-yl)sulfonyl]piperazin-1-yl}propan-2-yl]-8-(6-methylpyridin-3-yl)quinazolin-4-amine], the IC50 fell in the range of 10 to 100 nM.
The result for `Cc1ccc(-c2cccc3c(N[C@@H](C)CN4CCN(S(=O)(=O)c5ccc(-c6cc(C)no6)s5)CC4)ncnc23)cn1` [Example 85, N-[(2S)-1-(4-{[5-(3-methyl-1,2-oxazol-5-yl)thiophen-2-yl]sulfonyl}piperazin-1-yl)propan-2-yl]-8-(6-methylpyridin-3-yl)quinazolin-4-amine] reads less than 10 nM; that for `Cc1cc(-c2ccc(S(=O)(=O)N3CCN(C[C@H](C)Nc4ncnc5c(-c6cccc(CN(C)C)c6)cccc45)CC3)s2)on1` [Example 17, 8-{3-[(dimethylamino)methyl]phenyl}-N-[(2S)-1-(4-{[5-(3-methyl-1,2-oxazol-5-yl)thiophen-2-yl]sulfonyl}piperazin-1-yl)propan-2-yl]quinazolin-4-amine], less than 10 nM; that for `COC(=O)Nc1nc(C)c(S(=O)(=O)N2CCN(C[C@H](C)Nc3ncnc4c(-c5cccc(CN(C)C)c5)cccc34)CC2)s1` [Example 21, methyl N-[5-({4-[(2S)-2-[(8-{3-[(dimethylamino)methyl]phenyl}quinazolin-4-yl)amino]propyl]piperazin-1-yl}sulfonyl)-4-methyl-1,3-thiazol-2-yl]carbamate], less than 10 nM.
In the case of `Cc1cc(-c2ccc(S(=O)(=O)N3CCN(C[C@H](C)Nc4ncnc5c(-c6cn(C)nc6C(F)(F)F)cccc45)CC3)s2)on1` [Example 14, N-[(2S)-1-(4-{[5-(3-methyl-1,2-oxazol-5-yl)thiophen-2-yl]sulfonyl}piperazin-1-yl)propan-2-yl]-8-[1-methyl-3-(trifluoromethyl)-1H-pyrazol-4-yl]quinazolin-4-amine], the IC50 was less than 10 nM.
The result for `C[C@@H](CN1CCN(S(=O)(=O)c2ccc3[nH]c(=O)cnc3c2)CC1)Nc1ncnc2c(-c3cccnc3)cccc12` [Example 59, 6-({4-[(2S)-2-{[8-(pyridin-3-yl)quinazolin-4-yl]amino}propyl]piperazin-1-yl}sulfonyl)-1,2-dihydroquinoxalin-2-one] reads 10 to 100 nM; that for `Cc1ccc(-c2cccc3c(N[C@@H](C)CN4CCN(S(=O)(=O)c5ccc6c(c5)sc(=O)n6C)CC4)ncnc23)cn1` [Example 100, 3-methyl-6-({4-[(2S)-2-{[8-(6-methylpyridin-3-yl)quinazolin-4-yl]amino}propyl]piperazin-1-yl}sulfonyl)-2,3-dihydro-1,3-benzothiazol-2-one], 10 to 100 nM.

(Values after patent US20240190860A1, “8-CYCLO-SUBSTITUTED QUINAZOLINE DERIVATIVES AS LPA RECEPTOR 2 INHIBITORS” (CHIESI FARMACEUTICI S.p.A., priority 2021, published 2024).)
